Literature values in US7858118B2, “Extended release composition containing Tramadol” (Galephar Pharmaceutical Research, Inc., priority 2001, dated 2010).
Read-outs that look alike come from different tables or passages of the source.

Columns and labels:
[1] = animal models
[2] = after oral administration of immediate release dosage form
[3] = in words
[4] = single 100 mg oral dose, healthy subjects

Compound | potency relative to Tramadol in producing analgesia [1] | potency relative to Tramadol in u-opioid binding (μ-opioid receptors) [times] | maximum plasma concentration of the [+]-enantiomer of Tramadol (100 mg dose) [ng/mL] | maximum plasma concentration of the [−]-enantiomer of Tramadol (100 mg dose) [ng/mL] | maximum plasma concentration of the [−]-M1 enantiomer (100 mg dose of Tramadol, first value of the pair) [ng/mL] | maximum plasma concentration of the other M1 enantiomer (not given) (100 mg dose of Tramadol, second value of the pair) [ng/mL] | maximum plasma concentration at steady state (100 mg four times daily) [ng/mL] | time to steady state (100 mg four times daily) [days] | mean absolute bioavailability (100 mg oral dose) | time to peak plasma concentrations (immediate release, oral (b6)) | plasma half-life (multiple dosing) [h] | effect of food on rate or extent of absorption (oral, immediate release) | mean peak plasma concentration of the active mono-O-desmethyl metabolite (single 100 mg oral dose of Tramadol) [ng/mL] | time of peak plasma concentration of the mono-O-desmethyl metabolite (single 100 mg oral dose of Tramadol, post-dose) | mean peak plasma concentration of Tramadol [4] [ng/mL] | time of mean peak plasma concentration of Tramadol [4] | plasma half-life (single dosing) [h] | onset of analgesia [2] [h] | solubility in water and body fluids [3]
CN(C)C[C@H]1CCCC[C@]1(O)c1cccc(O)c1 [Example M1, O-desmethyl tramadol] | up to 6 times | 200 | – | – | – | – | – | – | – | – | – | – | – | – | – | – | – | – | –
COc1cccc(C2(O)CCCCC2CN(C)C)c1 (stereo not shown) [Tramadol] | – | – | 168 ± 36 | 148 ± 33 | 35 ± 10 | 26 ± 13 | 592 ± 177 | 2 | ≈ 75% | ≈ 2 hours | 7 | does not significantly affect | 55 ± 20 | ≈ 3 hours | 308 ± 78 | ≈ 2 hours | 6 | ≤ 1 | extremely high solubility
